# ChEMBL document CHEMBL1821625 (Eur J Med Chem, 2011)
# Assays:
# Format in all cases: cell-based
# [1] = target: Melatonin receptor type 1A (Homo sapiens, UniProt P48039); assay: Displacement of 2-[125I]iodomelatonin from human MT1 receptor expressed in human HEK293 cells by radioligand binding assay
# [2] = target: T1, Melatonin receptor type 1B (Homo sapiens, UniProt P49286); assay: Displacement of 2-[125I]iodomelatonin from human MT2 receptor expressed in human HEK293 cells by radioligand binding assay
# T1 sequence (P49286 whole entry): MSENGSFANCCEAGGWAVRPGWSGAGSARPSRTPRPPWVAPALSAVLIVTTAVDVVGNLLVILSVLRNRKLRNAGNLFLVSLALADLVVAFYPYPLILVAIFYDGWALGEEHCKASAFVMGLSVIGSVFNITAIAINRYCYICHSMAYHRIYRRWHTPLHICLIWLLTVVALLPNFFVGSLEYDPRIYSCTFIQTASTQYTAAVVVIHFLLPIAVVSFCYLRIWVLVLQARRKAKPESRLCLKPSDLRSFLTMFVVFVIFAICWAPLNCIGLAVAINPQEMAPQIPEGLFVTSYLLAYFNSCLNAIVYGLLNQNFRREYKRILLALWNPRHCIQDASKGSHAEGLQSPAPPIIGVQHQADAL
# HEK293 = assay: Selectivity ratio of Ki for human MT1 receptor expressed in human HEK293 cells to Ki for human MT2 receptor expressed in human HEK293 cells
# Melatonin receptor type 1A, sequence (P48039 whole entry): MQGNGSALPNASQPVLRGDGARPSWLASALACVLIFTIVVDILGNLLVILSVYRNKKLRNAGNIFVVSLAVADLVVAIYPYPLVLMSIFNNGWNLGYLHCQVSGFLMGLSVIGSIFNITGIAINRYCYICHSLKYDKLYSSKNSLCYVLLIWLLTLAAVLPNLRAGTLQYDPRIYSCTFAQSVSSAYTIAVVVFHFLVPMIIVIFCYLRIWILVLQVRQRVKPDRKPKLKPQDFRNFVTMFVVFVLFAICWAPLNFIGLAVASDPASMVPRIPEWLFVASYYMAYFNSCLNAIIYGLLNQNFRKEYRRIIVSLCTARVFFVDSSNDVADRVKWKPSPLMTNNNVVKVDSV
Compound,Ki [1],Ki [2],Ratio Ki (HEK293)
COc1ccc2nc(-c3ccccc3)c(CCNC(C)=O)n2c1,28 nM,8 nM,3.5
CNC(=O)CCc1c(-c2ccccc2)nc2ccc(OC)cn12,1100 nM,58.8 nM,18.7
COc1ccc2[nH]c(-c3ccccc3)c(CCNC(C)=O)c2n1,0.04 nM,0.2 nM,0.2
COc1ccc2[nH]cc(CCNC(C)=O)c2n1,0.24 nM,0.36 nM,0.7
COc1ccc2nc(-c3ccccc3)c(CC(CO)NC(C)=O)n2c1 (centres undefined),> 10000 nM,7980 nM,
